Test results published in patent US10344025B2, “GLS1 inhibitors for treating disease” (Board of Regents, The University of Texas System, priority 2014, dated 2019).

Legend:
[1] = target: purified recombinant human GAC (GLS1) (Homo sapiens (Human), UniProt O94925); assay: GLS1 Enzymatic Activity Assay (dual-coupled enzymatic assay, resorufin/Amplex UltraRed readout); type: biochemical;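 further: glutamate from GAC coupled via glutamate oxidase and peroxidase to resorufin, read as fluorescence (ex 530, em 590 nm) kinetically or at 20 min, four-parameter logistic IC50 fit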
A549 cells = assay: Proliferation Assay (A549 viability, Cell Titer Fluor, 72 hours); type: cell-based; conditions: Homo sapiens, A549, 72 h
Outline: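 Cell Titer Fluor fluorescence after 72 h compound treatment (0.5% DMSO, 37 °C, 5% CO2) of A549 cells plated 24 h earlier at 1000/well. Four-parameter logistic fitting gave IC50.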

purified recombinant human GAC (GLS1), sequence (O94925 other isoform, or with tags, fused parts or gaps): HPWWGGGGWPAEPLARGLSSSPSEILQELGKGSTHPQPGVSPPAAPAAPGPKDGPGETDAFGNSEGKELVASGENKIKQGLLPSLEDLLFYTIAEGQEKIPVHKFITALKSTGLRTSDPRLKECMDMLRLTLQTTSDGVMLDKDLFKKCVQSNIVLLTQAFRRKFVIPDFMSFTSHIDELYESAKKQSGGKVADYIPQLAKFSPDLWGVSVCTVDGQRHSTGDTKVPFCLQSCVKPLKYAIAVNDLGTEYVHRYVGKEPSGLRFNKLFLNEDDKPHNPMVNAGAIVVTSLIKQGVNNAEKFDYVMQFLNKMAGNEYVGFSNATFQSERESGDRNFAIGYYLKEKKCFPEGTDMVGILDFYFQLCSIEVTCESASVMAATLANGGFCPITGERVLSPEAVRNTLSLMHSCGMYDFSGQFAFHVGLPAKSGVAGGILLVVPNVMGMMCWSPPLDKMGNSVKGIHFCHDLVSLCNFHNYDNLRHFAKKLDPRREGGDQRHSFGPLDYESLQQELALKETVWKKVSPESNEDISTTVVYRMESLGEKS

Compound	IC50 [1]	EC50 (A549 cells)
O=C(CN1CC(F)(F)C1)Nc1cn(CC(F)CCn2cc(C(=O)NCc3cc(OC(F)(F)F)ccc3F)nn2)nn1 (stereo not drawn) [Example 390, 1-(4-{4-[2-(3,3-difluoroazetidin-1-yl)acetamido]-1H-1,2,3-triazol-1-yl}-3-fluorobutyl)-N-{[2-fluoro-5-(trifluoromethoxy)phenyl]methyl}-1H-1,2,3-triazole-4-carboxamide]	< 100 nM	< 100 nM
O=C(CN1CC(F)(F)C1)Nc1cn(CC(F)CCn2cc(C(=O)NCc3cccc(OC(F)(F)F)c3)nn2)nn1 (stereo not drawn) [Example 391, 1-(4-{4-[2-(3,3-difluoroazetidin-1-yl)acetamido]-1H-1,2,3-triazol-1-yl}-3-fluorobutyl)-N-{[3-(trifluoromethoxy)phenyl]methyl}-1H-1,2,3-triazole-4-carboxamide]	< 100 nM	100 to 500 nM
Cc1ccc(CNC(=O)c2cn(CCC(F)Cn3cc(NC(=O)CN4CC(F)(F)C4)nn3)nn2)cn1 (stereo not drawn) [Example 393, 1-(4-{4-[2-(3,3-difluoroazetidin-1-yl)acetamido]-1H-1,2,3-triazol-1-yl}-3-fluorobutyl)-N-[(6-methylpyridin-3-yl)methyl]-1H-1,2,3-triazole-4-carboxamide]	500 to 5000 nM	500 to 5000 nM
O=C(Cc1cccc(OC(F)(F)F)c1)Nc1cn(CC(F)CCn2cc(C(=O)NCc3cc(C(F)(F)F)ccn3)nn2)nn1 (stereo not drawn) [Example 394]	< 100 nM	< 100 nM
O=C(Cc1cc(OC(F)(F)F)ccc1F)Nc1cn(CC(F)CCn2cc(C(=O)NCc3cc(C(F)(F)F)ccn3)nn2)nn1 (stereo not drawn) [Example 395, 1-[3-fluoro-4-(4-{2-[2-fluoro-5-(trifluoromethoxy)phenyl]acetamido}-1H-1,2,3-triazol-1-yl)butyl]-N-{[4-(trifluoromethyl)pyridin-2-yl]methyl}-1H-1,2,3-triazole-4-carboxamide]	< 100 nM	< 100 nM
Cc1ccc(CNC(=O)c2cn(CC(F)CCn3cc(NC(=O)Cc4cccc(OC(F)(F)F)c4)nn3)nn2)cn1 (stereo not drawn) [Example 396, 1-[2-fluoro-4-(4-{2-[3-(trifluoromethoxy)phenyl]acetamido}-1H-1,2,3-triazol-1-yl)butyl]-N-[(6-methylpyridin-3-yl)methyl]-1H-1,2,3-triazole-4-carboxamide]	< 100 nM	< 100 nM
CNC(=O)c1cn(CC(F)CCc2nnc(NC(=O)Cc3cc(-c4cccc(OC(F)(F)F)c4)ccn3)s2)nn1 (stereo not drawn) [Example 397, 1-(2-fluoro-4-(5-(2-(4-(3-(trifluoromethoxy)phenyl)pyridin-2-yl)acetamido)-1,3,4-thiadiazol-2-yl)butyl)-N-methyl-1H-1,2,3-triazole-4-carboxamide 2,2,2-trifluoroacetate]	< 100 nM	< 100 nM
O=C(Cc1cc(OC(F)(F)F)ccc1F)Nc1cn(CCC(F)Cn2cc(C(=O)NCc3ccccn3)nn2)nn1 (stereo not drawn) [Example 398, 1-[2-fluoro-4-(4-{2-[2-fluoro-5-(trifluoromethoxy)phenyl]acetamido}-1H-1,2,3-triazol-1-yl)butyl]-N-(pyridin-2-ylmethyl)-1H-1,2,3-triazole-4-carboxamide]	< 100 nM	< 100 nM
O=C(Cc1cccc(OC(F)(F)F)c1)Nc1cn(CCC(F)Cn2cc(C(=O)NCc3ccccn3)nn2)nn1 (stereo not drawn) [Example 403, 1-[2-fluoro-4-(4-{2-[3-(trifluoromethoxy)phenyl]acetamido}-1H-1,2,3-triazol-1-yl)butyl]-N-(pyridin-2-ylmethyl)-1H-1,2,3-triazole-4-carboxamide]	< 100 nM	< 100 nM
O=C(Cc1cc(OC(F)(F)F)ccc1F)Nc1cn(CCC(F)Cn2cc(C(=O)NCc3cc(OC(F)(F)F)ccc3F)nn2)nn1 (stereo not drawn) [Example 404, 1-[2-fluoro-4-(4-{2-[2-fluoro-5-(trifluoromethoxy)phenyl]acetamido}-1H-1,2,3-triazol-1-yl)buty]-N-{[2-fluoro-5-(trifluoromethoxy)phenyl]methyl}-1H-1,2,3-triazole-4-carboxamide]	< 100 nM	< 100 nM
Cc1ccc(CC(=O)Nc2cn(CCC(F)Cn3cc(C(=O)NCc4cc(OC(F)(F)F)ccc4F)nn3)nn2)cn1 (stereo not drawn) [Example 405, 1-(2-fluoro-4-{4-[2-(6-methylpyridin-3-yl)acetamido]-1H-1,2,3-triazol-1-yl}butyl)-N-{[2-fluoro-5-(trifluoromethoxy)phenyl]methyl}-1H-1,2,3-triazole-4-carboxamide]	< 100 nM	< 100 nM
O=C(Cc1cccc(OC(F)(F)F)c1)Nc1cn(CCC(F)Cn2cc(C(=O)NCc3ncccc3F)nn2)nn1 (stereo not drawn) [Example 406, 1-[2-fluoro-4-(4-{2-[3-(trifluoromethoxy)phenyl]acetamido}-1H-1,2,3-triazol-1-yl)butyl]-N-[(3-fluoropyridin-2-yl)methyl]-1H-1,2,3-triazole-4-carboxamide]	< 100 nM	< 100 nM

Further lines, results first:

IC50 [1]	EC50 (A549 cells)	Compound
500 to 5000 nM	> 5000 nM	O=C(CN1CC(F)C1)Nc1cn(CC(F)CCn2cc(C(=O)NCc3ccccn3)nn2)nn1 (stereo not drawn) [Example 389, 1-(3-fluoro-4-{4-[2-(3-fluoroazetidin-1-yl)acetamido]-1H-1,2,3-triazol-1-yl}butyl)-N-(pyridin-2-ylmethyl)-1H-1,2,3-triazole-4-carboxamide]
500 to 5000 nM	> 5000 nM	O=C(CN1CC(F)(F)C1)Nc1cn(CC(F)CCn2cc(C(=O)NCc3ccccn3)nn2)nn1 (stereo not drawn) [Example 392, 1-(4-{4-[2-(3,3-difluoroazetidin-1-yl)acetamido]-1H-1,2,3-triazol-1-yl}-3-fluorobutyl)-N-(pyridin-2-ylmethyl)-1H-1,2,3-triazole-4-carboxamide]
< 100 nM	100 to 500 nM	O=C(Cc1ccccn1)Nc1cn(CC(F)CCn2cc(C(=O)NCc3cc(C(F)(F)F)ccn3)nn2)nn1 (stereo not drawn) [Example 399, 1-(3-fluoro-4-{4-[2-(pyridin-2-yl)acetamido]-1H-1,2,3-triazol-1-yl}butyl)-N-{[4-(trifluoromethyl)pyridin-2-yl]methyl}-1H-1,2,3-triazole-4-carboxamide]
< 100 nM	100 to 500 nM	Cc1ccc(CC(=O)Nc2cn(CC(F)CCn3cc(C(=O)NCc4cc(C(F)(F)F)ccn4)nn3)nn2)cn1 (stereo not drawn) [Example 400, 1-(3-fluoro-4-{4-[2-(6-methylpyridin-3-yl)acetamido]-1H-1,2,3-triazol-1-yl}butyl)-N-{[4-(trifluoromethyl)pyridin-2-yl]methyl}-1H-1,2,3-triazole-4-carboxamide]
100 to 500 nM	500 to 5000 nM	O=C(CN1CC(F)C1)Nc1cn(CC(F)CCn2cc(C(=O)NCc3cc(C(F)(F)F)ccn3)nn2)nn1 (stereo not drawn) [Example 401, 1-(3-fluoro-4-{4-[2-(3-fluoroazetidin-1-yl)acetamido]-1H-1,2,3-triazol-1-yl}butyl)-N-{[4-(trifluoromethyl)pyridin-2-yl]methyl}-1H-1,2,3-triazole-4-carboxamide]
100 to 500 nM	500 to 5000 nM	O=C(CN1CC(F)(F)C1)Nc1cn(CC(F)CCn2cc(C(=O)NCc3cc(C(F)(F)F)ccn3)nn2)nn1 (stereo not drawn) [Example 402, 1-(4-{4-[2-(3,3-difluoroazetidin-1-yl)acetamido]-1H-1,2,3-triazol-1-yl}-3-fluorobutyl)-N-{[4-(trifluoromethyl)pyridin-2-yl]methyl}-1H-1,2,3-triazole-4-carboxamide]
